#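 A five-concentration, 48-hour dose response in 96-well plates underlies each endpoint, interpolated linearly between surrounding concentrations. TGI denotes the concentration required for complete inhibition of growth.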
# How the values were obtained:
# Test in all cases: NCI anticancer screen, dose series, 48 h
# 786-0 renal = test system: 786-0 renal
# A549 NSCLC = test system: A549 NSCLC
# ACHN renal = test system: ACHN renal
# BT-549 breast = test system: BT-549 breast
# CAKI-1 renal = test system: CAKI-1 renal
# CCRF-CEM leukemia = test system: CCRF-CEM leukemia
# COLO 205 colon = test system: COLO 205 colon
# DU-145 prostate = test system: DU-145 prostate
# EKVX NSCLC = test system: EKVX NSCLC
# HCC-2998 colon = test system: HCC-2998 colon
# HCT-116 colon = test system: HCT-116 colon
# HCT-15 colon = test system: HCT-15 colon
# HL-60(TB) leukemia = test system: HL-60(TB) leukemia
# HOP-62 NSCLC = test system: HOP-62 NSCLC
# HS 578T breast = test system: HS 578T breast
# HT29 colon = test system: HT29 colon
# IGROV1 ovarian = test system: IGROV1 ovarian
# K-562 leukemia = test system: K-562 leukemia
# LOX IMVI melanoma = test system: LOX IMVI melanoma
# M14 melanoma = test system: M14 melanoma
# MALME-3M melanoma = test system: MALME-3M melanoma
# MCF7 breast = test system: MCF7 breast
# MDA-MB-231 breast = test system: MDA-MB-231 breast
# MDA-MB-435 = test system: MDA-MB-435
# MDA-N = test system: MDA-N
# MOLT-4 leukemia = test system: MOLT-4 leukemia
# NCI-H226 lung = test system: NCI-H226 lung
# NCI-H23 lung = test system: NCI-H23 lung
# NCI-H460 lung = test system: NCI-H460 lung
# NCI-H522 lung = test system: NCI-H522 lung
# NCI/ADR-RES ovarian = test system: NCI/ADR-RES ovarian
# OVCAR-3 ovarian = test system: OVCAR-3 ovarian
# OVCAR-4 ovarian = test system: OVCAR-4 ovarian
# OVCAR-5 ovarian = test system: OVCAR-5 ovarian
# OVCAR-8 ovarian = test system: OVCAR-8 ovarian
# PC-3 prostate = test system: PC-3 prostate
# RPMI-8226 leukemia = test system: RPMI-8226 leukemia
# RXF 393 renal = test system: RXF 393 renal
# SF-268 CNS = test system: SF-268 CNS
# SF-295 CNS = test system: SF-295 CNS
# SF-539 CNS = test system: SF-539 CNS
# SK-MEL-2 melanoma = test system: SK-MEL-2 melanoma
# SK-MEL-28 melanoma = test system: SK-MEL-28 melanoma
# SK-MEL-5 melanoma = test system: SK-MEL-5 melanoma
# SK-OV-3 ovarian = test system: SK-OV-3 ovarian
# SN12C renal = test system: SN12C renal
# SNB-19 CNS = test system: SNB-19 CNS
# SNB-75 CNS = test system: SNB-75 CNS
# SW-620 colon = test system: SW-620 colon
# T-47D breast = test system: T-47D breast
# TK-10 renal = test system: TK-10 renal
# UACC-257 melanoma = test system: UACC-257 melanoma
# UO-31 renal = test system: UO-31 renal
# A498 renal = test system: A498 renal
# HOP-92 NSCLC = test system: HOP-92 NSCLC
# KM12 colon = test system: KM12 colon
# SR leukemia = test system: SR leukemia
# U251 CNS = test system: U251 CNS
# UACC-62 melanoma = test system: UACC-62 melanoma
structure (smiles),measurement,setting,value
O=C(c1ccccc1)N1OCCC1Nc1ccc(Br)cc1 (stereo unspecified),TGI,786-0 renal,> 10 µM
same,TGI,A549 NSCLC,> 10 µM
same,TGI,ACHN renal,> 10 µM
same,TGI,BT-549 breast,> 10 µM
same,TGI,CAKI-1 renal,> 10 µM
same,TGI,CCRF-CEM leukemia,> 10 µM
same,TGI,COLO 205 colon,4.33 µM
same,TGI,DU-145 prostate,> 10 µM
same,TGI,EKVX NSCLC,> 10 µM
same,TGI,HCC-2998 colon,> 10 µM
same,TGI,HCT-116 colon,> 10 µM
same,TGI,HCT-15 colon,> 10 µM
same,TGI,HL-60(TB) leukemia,> 10 µM
same,TGI,HOP-62 NSCLC,> 10 µM
same,TGI,HS 578T breast,> 10 µM
same,TGI,HT29 colon,> 10 µM
same,TGI,IGROV1 ovarian,> 10 µM
same,TGI,K-562 leukemia,> 10 µM
same,TGI,LOX IMVI melanoma,> 10 µM
same,TGI,M14 melanoma,> 10 µM
same,TGI,MALME-3M melanoma,> 10 µM
same,TGI,MCF7 breast,> 10 µM
same,TGI,MDA-MB-231 breast,> 10 µM
same,TGI,MDA-MB-435,> 10 µM
same,TGI,MDA-N,> 10 µM
same,TGI,MOLT-4 leukemia,> 10 µM
same,TGI,NCI-H226 lung,> 10 µM
same,TGI,NCI-H23 lung,> 10 µM
same,TGI,NCI-H460 lung,> 10 µM
same,TGI,NCI-H522 lung,> 10 µM
same,TGI,NCI/ADR-RES ovarian,> 10 µM
same,TGI,OVCAR-3 ovarian,> 10 µM
same,TGI,OVCAR-4 ovarian,> 10 µM
same,TGI,OVCAR-5 ovarian,> 10 µM
same,TGI,OVCAR-8 ovarian,> 10 µM
same,TGI,PC-3 prostate,> 10 µM
same,TGI,RPMI-8226 leukemia,> 10 µM
same,TGI,RXF 393 renal,> 10 µM
same,TGI,SF-268 CNS,> 10 µM
same,TGI,SF-295 CNS,> 10 µM
same,TGI,SF-539 CNS,> 10 µM
same,TGI,SK-MEL-2 melanoma,> 10 µM
same,TGI,SK-MEL-28 melanoma,> 10 µM
same,TGI,SK-MEL-5 melanoma,> 10 µM
same,TGI,SK-OV-3 ovarian,> 10 µM
same,TGI,SN12C renal,> 10 µM
same,TGI,SNB-19 CNS,> 10 µM
same,TGI,SNB-75 CNS,> 10 µM
same,TGI,SW-620 colon,> 10 µM
same,TGI,T-47D breast,> 10 µM
same,TGI,TK-10 renal,> 10 µM
same,TGI,UACC-257 melanoma,> 10 µM
same,TGI,UO-31 renal,8.81 µM
C[N+]1(Cc2ccc(Cl)c(Cl)c2)CCCC1C1CCCN(Cc2ccc(Cl)c(Cl)c2)C1 (stereo unspecified),TGI,786-0 renal,> 100 µM
same,TGI,A498 renal,> 100 µM
same,TGI,A549 NSCLC,> 100 µM
same,TGI,ACHN renal,> 100 µM
same,TGI,BT-549 breast,> 100 µM
same,TGI,CAKI-1 renal,> 100 µM
same,TGI,COLO 205 colon,> 100 µM
same,TGI,DU-145 prostate,> 100 µM
same,TGI,EKVX NSCLC,> 100 µM
same,TGI,HCC-2998 colon,> 100 µM
same,TGI,HCT-116 colon,> 100 µM
same,TGI,HCT-15 colon,> 100 µM
same,TGI,HOP-62 NSCLC,> 100 µM
same,TGI,HOP-92 NSCLC,> 100 µM
same,TGI,HS 578T breast,> 100 µM
same,TGI,HT29 colon,> 100 µM
same,TGI,IGROV1 ovarian,> 100 µM
same,TGI,K-562 leukemia,> 100 µM
same,TGI,KM12 colon,> 100 µM
same,TGI,LOX IMVI melanoma,> 100 µM
same,TGI,M14 melanoma,> 100 µM
same,TGI,MALME-3M melanoma,> 100 µM
same,TGI,MCF7 breast,> 100 µM
same,TGI,MDA-MB-231 breast,> 100 µM
same,TGI,MDA-MB-435,> 100 µM
same,TGI,MDA-N,> 100 µM
same,TGI,MOLT-4 leukemia,> 100 µM
same,TGI,NCI-H23 lung,> 100 µM
same,TGI,NCI-H460 lung,> 100 µM
same,TGI,NCI-H522 lung,> 100 µM
same,TGI,NCI/ADR-RES ovarian,> 100 µM
same,TGI,OVCAR-3 ovarian,> 100 µM
same,TGI,OVCAR-4 ovarian,> 100 µM
same,TGI,OVCAR-5 ovarian,> 100 µM
same,TGI,OVCAR-8 ovarian,> 100 µM
same,TGI,PC-3 prostate,> 100 µM
same,TGI,RPMI-8226 leukemia,> 100 µM
same,TGI,RXF 393 renal,> 100 µM
same,TGI,SF-268 CNS,> 100 µM
same,TGI,SF-295 CNS,> 100 µM
same,TGI,SF-539 CNS,> 100 µM
same,TGI,SK-MEL-2 melanoma,> 100 µM
same,TGI,SK-MEL-28 melanoma,> 100 µM
same,TGI,SK-MEL-5 melanoma,> 100 µM
same,TGI,SK-OV-3 ovarian,> 100 µM
same,TGI,SN12C renal,> 100 µM
same,TGI,SNB-19 CNS,> 100 µM
same,TGI,SNB-75 CNS,> 100 µM
same,TGI,SR leukemia,> 100 µM
same,TGI,SW-620 colon,> 100 µM
same,TGI,T-47D breast,> 100 µM
same,TGI,TK-10 renal,> 100 µM
same,TGI,U251 CNS,> 100 µM
same,TGI,UACC-257 melanoma,> 100 µM
same,TGI,UACC-62 melanoma,> 100 µM
same,TGI,UO-31 renal,> 100 µM
COC(=O)C(Cc1ccc(Oc2cc(CC(NC(=O)c3ccccc3)C(=O)OC)ccc2OC)cc1)NC(=O)c1ccccc1 (stereo unspecified),TGI,786-0 renal,30 µM
same,TGI,A498 renal,> 100 µM
same,TGI,A549 NSCLC,> 100 µM
same,TGI,ACHN renal,> 55 µM
same,TGI,BT-549 breast,> 81.3 µM
same,TGI,CAKI-1 renal,> 100 µM
same,TGI,COLO 205 colon,> 73.2 µM
same,TGI,DU-145 prostate,> 50.3 µM
same,TGI,EKVX NSCLC,> 86.9 µM
same,TGI,HCC-2998 colon,> 100 µM
same,TGI,HCT-116 colon,> 100 µM
same,TGI,HCT-15 colon,> 100 µM
same,TGI,HL-60(TB) leukemia,> 57.3 µM
same,TGI,HOP-62 NSCLC,> 100 µM
same,TGI,HOP-92 NSCLC,> 65.1 µM
same,TGI,HS 578T breast,61.8 µM
same,TGI,HT29 colon,> 100 µM
same,TGI,IGROV1 ovarian,> 100 µM
same,TGI,K-562 leukemia,> 100 µM
same,TGI,KM12 colon,> 100 µM
same,TGI,LOX IMVI melanoma,> 71.6 µM
same,TGI,M14 melanoma,20.9 µM
same,TGI,MALME-3M melanoma,29.8 µM
same,TGI,MCF7 breast,> 100 µM
same,TGI,MDA-MB-231 breast,> 78.8 µM
same,TGI,MDA-MB-435,> 63.5 µM
same,TGI,MDA-N,34 µM
same,TGI,MOLT-4 leukemia,> 100 µM
same,TGI,NCI-H226 lung,> 64.5 µM
same,TGI,NCI-H23 lung,> 82.2 µM
same,TGI,NCI-H460 lung,> 100 µM
same,TGI,NCI-H522 lung,27.2 µM
same,TGI,NCI/ADR-RES ovarian,> 100 µM
same,TGI,OVCAR-3 ovarian,> 87.3 µM
same,TGI,OVCAR-4 ovarian,> 72.5 µM
same,TGI,OVCAR-5 ovarian,> 100 µM
same,TGI,OVCAR-8 ovarian,> 60.9 µM
same,TGI,PC-3 prostate,> 85.8 µM
same,TGI,RPMI-8226 leukemia,> 69.3 µM
same,TGI,RXF 393 renal,28.5 µM
same,TGI,SF-268 CNS,48.9 µM
same,TGI,SF-295 CNS,> 100 µM
same,TGI,SF-539 CNS,> 60.2 µM
same,TGI,SK-MEL-2 melanoma,> 74 µM
same,TGI,SK-MEL-28 melanoma,> 52.4 µM
same,TGI,SK-MEL-5 melanoma,32.9 µM
same,TGI,SK-OV-3 ovarian,> 100 µM
same,TGI,SN12C renal,21.3 µM
same,TGI,SNB-19 CNS,> 100 µM
same,TGI,SNB-75 CNS,> 100 µM
same,TGI,SW-620 colon,> 100 µM
same,TGI,T-47D breast,> 51.4 µM
same,TGI,TK-10 renal,> 59.8 µM
same,TGI,U251 CNS,> 100 µM
same,TGI,UACC-257 melanoma,23.8 µM
same,TGI,UACC-62 melanoma,42.7 µM
same,TGI,UO-31 renal,24.2 µM

# Source: PubChem BioAssay (NCI)
